Assay results from PMC10686834, “Targeting myeloid chemotaxis to reverse prostate cancer therapy resistance” (Nature, 2023).
Like-named read-outs stand apart in the source and are kept apart here.

Assays:
[1] = tested on: CYP2E1; set-up: method as in AZD5069 Investigator Brochure (IB); details: at concentrations of up to 100 μmol/L; ref AZD5069 Investigator Brochure (IB); cited from earlier work
[2] = tested on: CYP2B6; set-up: method as in AZD5069 Investigator Brochure (IB); details: human hepatocytes; ref AZD5069 Investigator Brochure (IB); cited from earlier work
[3] = tested on: plasma protein; set-up: method as in AZD5069 Investigator Brochure (IB); details: ref AZD5069 Investigator Brochure (IB); cited from earlier work
[4] = tested on: patients with chronic obstructive pulmonary disease (COPD); details: cited from earlier work
[5] = tested on: LPS induced pulmonary neutrophilia; set-up: method as in AZD5069 Investigator Brochure (IB); details: rat; ref AZD5069 Investigator Brochure (IB); cited from earlier work
[6] = tested on: CYP1A2; set-up: method as in AZD5069 Investigator Brochure (IB); details: at concentrations of up to 100 μmol/L; ref AZD5069 Investigator Brochure (IB); cited from earlier work
[7] = set-up: method as in AZD5069 Investigator Brochure (IB); details: in vitro and in vivo studies; ref AZD5069 Investigator Brochure (IB); cited from earlier work
[8] = tested on: patients with persistent uncontrolled asthma; set-up: method as in AZD5069 Investigator Brochure (IB); details: asthma study NCT01704495, 161 patients receiving 45 mg BD, 6-month safety analysis set; ref AZD5069 Investigator Brochure (IB); cited from earlier work
[9] = tested on: blood neutrophils; experiment: Peripheral blood neutrophil counts and NLR on treatment; type: in vivo, human
Procedure: Secondary endpoints were:(i) the rate of objective response, with objective response defined as confirmed soft tissue objective response by Response Evaluation Criteria in Solid Tumors v.1.1 in those with measurable disease, and/or PSA decline ≥50% confirmed 4 weeks or later, and/or CTC count conversion from ≥5 per 7.5 ml of blood at baseline to <5 per 7.5 ml of blood at nadir; (ii) pharmacokinetic parameters, including maximum concentration, area under the concentration–time curve; and (iii) pharmacodynamic changes including identifying patients whose blood NLR, neutrophil, and intratumour myeloid cell density decrease. Exploratory endpoints included blood cytokine levels and evaluation of tumour molecular profile on response.
The association between myeloid cell densities and NLR was evaluated in two cohorts (Supplementary Table 1). Cohort 1 consisted of 48 mCRPC biopsies from patients treated at ICR/RMH, Oncology Institute of Southern Switzerland and Belfast City Hospital between 2012 and 2021. All patients provided informed consent, and enrolled onto institutional protocols approved by the local RECs (REC reference: 04/Q0801/60, 11/LO/2019). The validation cohort consisted of 57 mCRPC biopsies from patients treated at ICR/RMH between 2012 and 2016 under institutional protocols approved by the local REC (REC references: 04/Q0801/60, 2017-01002 CE TI 3237). […]

[10] = tested on: monkey; details: in vivo; cited from earlier work
[11] = tested on: gastric emptying and intestinal motility; details: rat, ref AZD5069 Investigator Brochure (IB), cited from earlier work
[12] = tested on: rat; details: 1-month and 6-month rat studies; ref AZD5069 Investigator Brochure (IB); cited from earlier work

C[C@@H](Oc1cc(NS(=O)(=O)N2CCC2)nc(SCc2cccc(F)c2F)n1)[C@@H](O)CO [AZD5069]
inhibition of CYP2E1 [1]: not an inhibitor
induction of CYP2B6 activity [2]: concentration dependent induction
bound to plasma protein [3]: > 96%
adverse events (AEs) ([4]; 50mg AZD5069, ref (18)): 33%
treatment discontinuation for decrease in neutrophils (<1.0 × 10^9/L in two blood samples, 24 hours apart) ([4]; 50mg AZD5069, ref (18)): 10%
adverse events (AEs) ([4]; 80mg AZD5069, ref (18)): 21%
treatment discontinuation for decrease in neutrophils (<1.0 × 10^9/L in two blood samples, 24 hours apart) ([4]; 80mg AZD5069, ref (18)): 4%
AEs leading to discontinuation of treatment ([4]; AZD5069 50 mg group, ref (18)): 17%
patients discontinued from the study due to decreased neutrophil count ([4]; AZD5069 50 mg group, ref (18)): 3
AEs leading to discontinuation of treatment ([4]; AZD5069 80 mg group, ref (18)): 7%
average decrease of blood neutrophil counts from baseline ([4]; AZD5069 80 mg group, ref (18)): 13-36%
patients discontinued from the study due to decreased neutrophil count ([4]; AZD5069 80 mg group, ref (18)): 1
effect on LPS induced pulmonary neutrophilia [5]: dose dependent inhibition
inhibition of CYP1A2 [6]: not an inhibitor
genotoxicity [7]: not genotoxic
patients who discontinued the drug due to neutrophil counts 1x10^9/L [8]: 4
effect on blood neutrophil counts and NLRs ([9]; 40 mg BD to 320 mg BD): decreased blood neutrophil counts and NLRs in a dose-dependent manner
on-target reduction in blood neutrophil counts ([9]; AZD5069 >40 mg BD): at least 30%
tolerated single doses (maximum feasible dose) [10]: ≤ 350 mg/kg BD
No Observed Effect Level (NOEL) ([11]; gastric emptying and intestinal motility): 60 mg/kg
dose level with inhibition of gastric emptying and intestinal motility [11]: 350 mg/kg
dose with enlarged mandibular lymph nodes in both sexes [12]: ≥ 40 mg/kg BD
